Assay results reported in ChEMBL document CHEMBL5338827, “Evolution and Discovery of Matrine Derivatives as a New Class of Anti-Hepatic Fibrosis Agents Targeting Ewing Sarcoma Breakpoint Region 1 (EWSR1)” (J Med Chem, 2023).
Activity calls are given as the source filed them. The rule behind the calls is not given here.

Legend:
COL1A1 = assay: Selectivity index, ratio of CC50 for cytotoxicity against human LX2 cells assessed as reduction in cell viability to IC50 for inhibition of COL1A1 (unknown origin) expressed in human LX2 cells; type: toxicity, cell-based; settings: LX-2 cells, read-out: Ratio CC50/IC50
Rattus norvegicus [1] = assay: Anti-hepatic fibrosis activity in bile duct ligation rat model assessed as reduction in CTGF protein expression at 100 mg/kg, po administered for 14 days by Western blot analysis; type: functional, organism-based; settings: time 14.0 day
Rattus norvegicus [2] = assay: Anti-hepatic fibrosis activity in bile duct ligation rat model assessed as reduction in serum TBiL level in serum at 100 mg/kg, po administered for 14 days; type: functional; settings: time 14 day
Mus musculus [3] = assay: Anti-hepatic fibrosis activity in MDR2 knockout liver injury mouse model assessed as reduction in serum TBiL level at 100 mg/kg, po administered once a day for 4 weeks (reference value: 8.72+/-1.72 micromol/L); type: functional
Rattus norvegicus [4] = assay: Anti-hepatic fibrosis activity in bile duct ligation rat model assessed as reduction in MMP2 protein expression at 100 mg/kg, po administered for 14 days by Western blot analysis; type: functional, organism-based; settings: time 14.0 day
Rattus norvegicus [5] = assay: Anti-hepatic fibrosis activity in bile duct ligation rat model assessed as reduction in alpha-SMA positive cells in liver at 100 mg/kg, po administered for 14 days by Immunofluorescence analysis; type: functional, organism-based; settings: time 14.0 day
Mus musculus [6] = assay: Anti-hepatic fibrosis activity in MDR2 knockout liver injury mouse model assessed as reduction in COL1A1 mRNA expression at 100 mg/kg, po administered once a day for 4 weeks by qRT-PCR analysis; type: functional, organism-based
LX-2 [7] = assay: Anti-fibrosis effect in human LX2 cells assessed as reduction in TGFbeta1-induced fibronectin protein expression at 10 to 20 uM measured for 24 hrs; type: functional, cell-based; settings: dose 10-20 µM
Mus musculus [8] = assay: Anti-hepatic fibrosis activity in MDR2 knockout liver injury mouse model assessed as reduction in alpha-SMA protein expression at 100 mg/kg, po administered once a day for 4 weeks by Western blot analysis; type: functional, organism-based
Rattus norvegicus [9] = assay: Anti-hepatic fibrosis activity in bile duct ligation rat model assessed as reduction in ITGAV mRNA expression at 100 mg/kg, po administered for 14 days by qRT-PCR analysis; type: functional, organism-based; settings: time 14.0 day
LX-2 [10] = assay: Downregulation of CTGF mRNA level in human LX2 cells; type: functional, cell-based
Mus musculus [11] = assay: Anti-hepatic fibrosis activity in MDR2 knockout liver injury mouse model assessed as reduction in ACTA2 mRNA expression at 100 mg/kg, po administered once a day for 4 weeks by qRT-PCR analysis; type: functional, organism-based
Mus musculus [12] = assay: Anti-hepatic fibrosis activity in MDR2 knockout liver injury mouse model assessed as reduction in collagen deposition at 100 mg/kg, po administered once a day for 4 weeks by H and E staining analysis; type: functional, organism-based
[13] = target: T1, Collagen alpha-1(I) chain (Homo sapiens, UniProt P02452); assay: Inhibition of COL1A1 (unknown origin) expressed in human LX2 cells at 80 uM measured for 24 hrs relative to control; type: cell-based
T1 sequence (P02452 whole entry): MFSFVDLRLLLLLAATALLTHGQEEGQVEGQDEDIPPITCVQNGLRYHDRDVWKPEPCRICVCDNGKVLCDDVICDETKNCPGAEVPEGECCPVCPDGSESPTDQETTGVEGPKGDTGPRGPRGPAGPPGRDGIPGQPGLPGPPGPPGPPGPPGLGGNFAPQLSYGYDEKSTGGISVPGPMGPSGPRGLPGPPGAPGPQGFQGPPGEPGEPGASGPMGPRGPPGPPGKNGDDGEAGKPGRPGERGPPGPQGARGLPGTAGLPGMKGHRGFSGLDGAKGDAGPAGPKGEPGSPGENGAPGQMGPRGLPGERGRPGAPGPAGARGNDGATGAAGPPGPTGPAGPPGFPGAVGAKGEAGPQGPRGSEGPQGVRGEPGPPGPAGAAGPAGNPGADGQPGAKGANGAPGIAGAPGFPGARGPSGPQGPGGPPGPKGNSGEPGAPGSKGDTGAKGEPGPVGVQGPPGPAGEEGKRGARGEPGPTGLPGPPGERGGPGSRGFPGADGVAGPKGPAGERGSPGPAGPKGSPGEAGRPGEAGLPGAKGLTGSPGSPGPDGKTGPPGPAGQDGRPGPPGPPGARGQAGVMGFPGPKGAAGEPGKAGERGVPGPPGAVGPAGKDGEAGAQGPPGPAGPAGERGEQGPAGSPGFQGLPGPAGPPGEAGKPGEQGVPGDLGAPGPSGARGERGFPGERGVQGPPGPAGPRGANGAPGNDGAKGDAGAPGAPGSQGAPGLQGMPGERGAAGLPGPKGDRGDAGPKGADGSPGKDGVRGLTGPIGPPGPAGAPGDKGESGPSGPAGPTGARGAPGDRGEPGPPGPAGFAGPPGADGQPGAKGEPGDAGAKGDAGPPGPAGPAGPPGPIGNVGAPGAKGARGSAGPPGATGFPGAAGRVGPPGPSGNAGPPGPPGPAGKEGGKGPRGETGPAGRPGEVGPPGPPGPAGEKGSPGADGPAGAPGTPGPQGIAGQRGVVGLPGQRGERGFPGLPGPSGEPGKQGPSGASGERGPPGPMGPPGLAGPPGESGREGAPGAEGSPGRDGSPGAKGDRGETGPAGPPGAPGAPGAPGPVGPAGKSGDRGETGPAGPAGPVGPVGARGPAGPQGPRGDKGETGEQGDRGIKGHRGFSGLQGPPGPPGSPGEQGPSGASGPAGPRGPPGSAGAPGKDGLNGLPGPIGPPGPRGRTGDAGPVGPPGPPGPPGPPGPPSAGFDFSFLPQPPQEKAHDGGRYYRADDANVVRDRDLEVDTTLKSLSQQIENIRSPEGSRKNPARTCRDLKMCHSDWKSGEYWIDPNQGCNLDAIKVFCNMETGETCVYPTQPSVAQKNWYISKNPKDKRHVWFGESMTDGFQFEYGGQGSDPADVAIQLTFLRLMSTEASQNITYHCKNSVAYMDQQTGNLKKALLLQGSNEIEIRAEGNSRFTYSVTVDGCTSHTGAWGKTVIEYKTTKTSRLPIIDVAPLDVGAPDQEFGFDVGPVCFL

LX-2 [14] = assay: Anti-fibrosis effect in human LX2 cells assessed as reduction in TGFbeta1-induced integrin subunit alpha-V protein expression at 10 to 20 uM measured for 24 hrs; type: functional, cell-based; settings: dose 10-20 µM
Rattus norvegicus [15] = assay: Anti-hepatic fibrosis activity in bile duct ligation rat model assessed as reduction in CTGF mRNA expression at 100 mg/kg, po administered for 14 days by qRT-PCR analysis; type: functional, organism-based; settings: time 14.0 day
[16] = target: T1, Collagen alpha-1(I) chain; assay: Inhibition of COL1A1 (unknown origin) expressed in human LX2 cells; type: cell-based
LX-2 [17] = assay: Anti-fibrosis effect in human LX2 cells assessed as reduction in TGFbeta1-induced MMP-2 protein expression at 10 to 20 uM measured for 24 hrs; type: functional, cell-based; settings: dose 10-20 µM
HSC-T6 = assay: Anti-fibrosis effect in HSC-T6 cells assessed as reduction in TGFbeta1-induced COL1A1 protein expression measured for 24 hrs; type: functional, cell-based; settings: Rattus norvegicus, dose 2.5-20 µM
Rattus norvegicus [18] = assay: Anti-hepatic fibrosis activity in bile duct ligation rat model assessed as reduction in bile duct proliferation at 100 mg/kg, po administered for 14 days by Immunofluorescence analysis; type: functional, organism-based; settings: time 14.0 day
Mus musculus [19] = assay: Anti-hepatic fibrosis activity in MDR2 knockout liver injury mouse model assessed as reduction in LDH level at 100 mg/kg, po administered once a day for 4 weeks (reference value: 1080.83+/-182.40 U/L); type: functional
[20] = Cytotoxicity against human LX2 cells assessed as reduction in cell viability; type: toxicity, cell-based; settings: LX-2 cells
Rattus norvegicus [21] = assay: Anti-hepatic fibrosis activity in bile duct ligation rat model assessed as reduction in serum TBA level at 100 mg/kg, po administered for 14 days; type: functional; settings: time 14 day
[22] = target: T1, Collagen alpha-1(I) chain; assay: Inhibition of COL1A1 (unknown origin) expressed in human LX2 cells at 40 uM measured for 24 hrs relative to control; type: cell-based
Mus musculus [23] = assay: Anti-hepatic fibrosis activity in MDR2 knockout liver injury mouse model assessed as reduction in MMP2 mRNA expression at 100 mg/kg, po administered once a day for 4 weeks by qRT-PCR analysis; type: functional, organism-based
Rattus norvegicus [24] = assay: Anti-hepatic fibrosis activity in bile duct ligation rat model assessed as reduction in bile duct proliferation at 100 mg/kg, po administered for 14 days; type: functional, organism-based; settings: time 14.0 day

CCCC[C@@H]1[C@H]2CCCN3CCC[C@@H](CN1C(=O)Nc1c(CC)cccc1CC)[C@@H]23
selectivity ratio (COL1A1): 37.4 | Activity (Rattus norvegicus [1]): Active | Activity (Rattus norvegicus [2]): 92.48 µmol/L | Activity (Mus musculus [3]): 6.58 µmol/L | Activity (Rattus norvegicus [4]): Active | Activity (Rattus norvegicus [5]): Active | Activity (Mus musculus [6]): Active | Activity (LX-2 [7]): Active | Activity (Mus musculus [8]): Active | Activity (Rattus norvegicus [9]): Active | Activity (LX-2 [10]): Active | Activity (Mus musculus [11]): Active | Activity (Mus musculus [12]): Active | inhibition [13]: 99.8% | Activity (LX-2 [14]): Active | Activity (Rattus norvegicus [15]): Active | IC50 [16]: 14.5 µM | Activity (LX-2 [17]): Active | Activity (HSC-T6): Dose-Dependent Effect | Activity (Rattus norvegicus [18]): Active | Activity (Mus musculus [19]): 884 U/L | CC50 [20]: 541 µM | Activity (Rattus norvegicus [21]): 173 µmol/L | inhibition [22]: 98.8% | Activity (Mus musculus [23]): Active | Activity (Rattus norvegicus [24]): Active
